Measurements reported in EP1043020A1, “MEDICINAL COMPOSITION FOR PERCUTANEOUS ADMINISTRATION” (priority 1997, dated 1999).
Read-outs that look alike come from different tables or passages of the source.

Assays:
[1] = in vitro skin permeability test in pig; assay type: in vitro ADME, Yucatan miniature pig
[2] = not given; remark: listed apart in the source

CC(=N)N1CC[C@H](Oc2ccc([C@H](Cc3ccc4ccc(C(=N)N)cc4c3)C(=O)O)cc2)C1.Cl.O.O.O.O.O [compound A, (2S)-2-[4-[((3S)-1-acetimidoyl-3-pyrrolidinyl)oxy]phenyl]-3-(7-amidino-2-naphthyl)propionic acid hydrochloride pentahydrate]
Percutaneous absorption enhancing effect: 1.0 | Q24 (cumulative skin permeation amount of compound A per unit area for 24 hours): 709.05 ± 76.18 µg/cm^2 | Percutaneous absorption enhancing effect [1]: 1.0 | Q48 (cumulative skin permeation amount of compound A per unit area for 48 hours) ([2]; human skin (2): horny, epidermal, dermal and some fat layers, approximately 1 mm, freeze-stored, thawed, fat removed, donor: compound A 50 mg/mL with enhancer, mean ± S.E., n=2 or 3): (2) 3 ± 1 µg/cm^2 | Percutaneous absorption enhancing effect ([2]; human skin (2), ratio of Q48 of compound A with enhancer to that without enhancer (3 ± 1)): 1.0
